For this test, the system named is BDF1 mice, L1210 leukemia sc, survival T/C. Put plainly: NCI In Vivo Anticancer Drug Screen. Data for tumor model L1210 Leukemia (subcutaneous) in B6D2F1 (BDF1) mice. The following applies: higher = longer survival. The procedure:
The antitumor activity of compounds was measured in mice bearing transplantable tumors. Survival or tumor size were measured and the results are expressed as the measurement made in the treated group (T) divided by the measurement made in the vehicle treated control group (C). The tumor model used in this assay is L1210 Leukemia (subcutaneous) in B6D2F1 (BDF1) mice

The mark [1] stands for this setting: endpoint: median survival time, dose: 39.0 mg/kg/injection, schedule: Q01DX Z (sc), vehicle: methylcellulose (MC).
The mark [2] stands for this setting: endpoint: median survival time, dose: 65.0 mg/kg/injection, schedule: Q01DX Z (sc), vehicle: methylcellulose (MC).
Where [3] appears, read: endpoint: median survival time, dose: 108.0 mg/kg/injection, schedule: Q01DX Z (sc), vehicle: methylcellulose (MC).
Where [4] appears, read: endpoint: median survival time, dose: 180.0 mg/kg/injection, schedule: Q01DX Z (sc), vehicle: methylcellulose (MC).
The mark [5] stands for this setting: endpoint: median survival time, dose: 300.0 mg/kg/injection, schedule: Q01DX Z (sc), vehicle: methylcellulose (MC).
[6] abbreviates: endpoint: median survival time, dose: 14.0 mg/kg/injection, schedule: Q01DX Z (sc), vehicle: saline.
Where [7] appears, read: endpoint: median survival time, dose: 23.0 mg/kg/injection, schedule: Q01DX Z (sc), vehicle: saline.
[8] abbreviates: endpoint: median survival time, dose: 39.0 mg/kg/injection, schedule: Q01DX Z (sc), vehicle: saline.
[9] abbreviates: endpoint: median survival time, dose: 39.0 mg/kg/injection, schedule: Q01DX Z (sc), vehicle: water.
Where [10] appears, read: endpoint: median survival time, dose: 65.0 mg/kg/injection, schedule: Q01DX Z (sc), vehicle: saline.
Setting [11] is: endpoint: median survival time, dose: 108.0 mg/kg/injection, schedule: Q01DX Z (sc), vehicle: saline.
The mark [12] stands for this setting: endpoint: median survival time, dose: 180.0 mg/kg/injection, schedule: Q01DX Z (sc), vehicle: saline.
The mark [13] stands for this setting: endpoint: median survival time, dose: 300.0 mg/kg/injection, schedule: Q01DX Z (sc), vehicle: water.

Where “and” joins values, the source holds several entries; their conditions need not be identical. Equal values may be shown once. Inconclusive results and toxic doses are left out.

On to `C[C@]12CCC(=O)C=C1CC[C@@H]1[C@@H]2C(=O)C[C@@]2(C)[C@H]1CC[C@]2(O)C(=O)CO`, for which the T/C was 100 % of control under setting [1]; 104 % of control under setting [2]; 104 % of control under setting [3]; 100 % of control under setting [4]; 100 % of control under setting [5].
In the case of `CN=C(NC)c1ccc(NC(=O)c2ccc(C(=O)Nc3ccc(C(=NC)NC)cc3)c(Cl)c2)cc1`, the T/C under setting [1] was 100 % of control; the T/C under setting [2] was 100 % of control; the T/C under setting [3] was 100 % of control; the T/C under setting [4] is 105 % of control; the T/C under setting [5] was 100 % of control.
With `CN(N=O)C(=O)N[C@@H](C=O)[C@@H](O)[C@H](O)[C@H](O)CO`, the T/C (endpoint: median survival time, dose: 25.0 mg/kg/injection, schedule: Q01DX009 (sc), vehicle: other) was 123 % of control.
Take `O=C(Nc1ccc(C2=NCCN2)cc1)c1ccc(C(=O)Nc2ccc(C3=NCCN3)cc2)cc1`: the T/C is, setting by setting: (endpoint: median survival time, dose: 3.0 mg/kg/injection, schedule: Q01DX Z (sc), vehicle: saline) 100 % of control; (endpoint: median survival time, dose: 5.0 mg/kg/injection, schedule: Q01DX Z (sc), vehicle: saline) 100 % of control and 104 % of control; (endpoint: median survival time, dose: 8.4 mg/kg/injection, schedule: Q01DX Z (sc), vehicle: saline) 109 % of control; under setting [6], 104 % of control; (endpoint: median survival time, dose: 23.0 mg/kg/injection, schedule: Q01DX Z (ip), vehicle: water) 100 % of control; under setting [7], 104 % of control and 109 % of control. In addition, the T/C is 100 % of control (endpoint: median survival time, dose: 39.0 mg/kg/injection, schedule: Q01DX Z (ip), vehicle: water); 100 % of control under setting [8]; 100 % of control under setting [9]; 110 % of control (endpoint: median survival time, dose: 65.0 mg/kg/injection, schedule: Q01DX Z (ip), vehicle: water); 100 % of control and 104 % of control under setting [10]; 100 % of control and 104 % of control under setting [11]. Also, the T/C by setting is: (endpoint: median survival time, dose: 180.0 mg/kg/injection, schedule: Q01DX Z (ip), vehicle: water) 115 % of control; under setting [12], 104 % of control; (endpoint: median survival time, dose: 200.0 mg/kg/injection, schedule: Q01DX Z (sc), vehicle: water) 110 % of control and 100 % of control; (endpoint: median survival time, dose: 300.0 mg/kg/injection, schedule: Q01DX Z (ip), vehicle: water) 185 % of control; (endpoint: median survival time, dose: 300.0 mg/kg/injection, schedule: Q01DX Z (sc), vehicle: saline) 104 % of control; under setting [13], 100 % of control. Also, the T/C is, setting by setting: (endpoint: median survival time, dose: 400.0 mg/kg/injection, schedule: Q01DX Z (sc), vehicle: water) 205 % of control and 105 % of control; (endpoint: median survival time, dose: 800.0 mg/kg/injection, schedule: Q01DX Z (sc), vehicle: water) 170 % of control and 220 % of control.
Turning to `COc1cc(NS(C)(=O)=O)ccc1Nc1c2ccccc2nc2c(C)cccc12`, the T/C is, setting by setting: (endpoint: mean survival time, dose: 2.5 mg/kg/injection, schedule: Q01DX009 (ip), vehicle: saline) 100 % of control and 114 % of control; (endpoint: mean survival time, dose: 5.0 mg/kg/injection, schedule: Q01DX009 (ip), vehicle: saline) 108 % of control and 103 % of control; (endpoint: mean survival time, dose: 10.0 mg/kg/injection, schedule: Q01DX009 (ip), vehicle: saline) 99 % of control.
`CCC1=C(c2ccc(OC)cc2)CCC(C(=O)O)C1C` (stereo not drawn): the T/C by setting is: (endpoint: median survival time, dose: 14.0 mg/kg/injection, schedule: Q01DX Z (sc), vehicle: steriod suspending solution) 105 % of control; (endpoint: median survival time, dose: 23.0 mg/kg/injection, schedule: Q01DX Z (sc), vehicle: steriod suspending solution) 100 % of control; (endpoint: median survival time, dose: 39.0 mg/kg/injection, schedule: Q01DX Z (sc), vehicle: steriod suspending solution) 105 % of control; (endpoint: median survival time, dose: 65.0 mg/kg/injection, schedule: Q01DX Z (sc), vehicle: steriod suspending solution) 100 % of control; (endpoint: median survival time, dose: 108.0 mg/kg/injection, schedule: Q01DX Z (sc), vehicle: steriod suspending solution) 100 % of control and 111 % of control; (endpoint: median survival time, dose: 180.0 mg/kg/injection, schedule: Q01DX Z (sc), vehicle: steriod suspending solution) 100 % of control and 105 % of control. For the same compound, the T/C was 100 % of control and 111 % of control (endpoint: median survival time, dose: 300.0 mg/kg/injection, schedule: Q01DX Z (sc), vehicle: steriod suspending solution); 111 % of control (endpoint: median survival time, dose: 500.0 mg/kg/injection, schedule: Q01DX Z (sc), vehicle: steriod suspending solution); 100 % of control (endpoint: median survival time, dose: 833.0 mg/kg/injection, schedule: Q01DX Z (sc), vehicle: steriod suspending solution).
As for `O=C(NC(CO)C(=O)O)C(Cl)Cl` (stereo not drawn), the T/C reads like this: (endpoint: median survival time, dose: 138.8 mg/kg/injection, schedule: Q01DX Z (sc), vehicle: water) 100 % of control; under setting [13], 100 % of control; (endpoint: median survival time, dose: 500.0 mg/kg/injection, schedule: Q01DX Z (sc), vehicle: water) 100 % of control.
In the case of `OCC1OC(n2cnc3cc(Cl)c(Cl)cc32)C(O)C1O` (stereo not drawn), the T/C was 95 % of control (endpoint: median survival time, dose: 23.0 mg/kg/injection, schedule: Q01DX Z (sc), vehicle: methylcellulose (MC)); 95 % of control (endpoint: median survival time, dose: 23.0 mg/kg/injection, schedule: Q01DX Z (sc), vehicle: water); 95 % of control under setting [1]; 105 % of control under setting [9]; 100 % of control under setting [2]; 100 % of control (endpoint: median survival time, dose: 65.0 mg/kg/injection, schedule: Q01DX Z (sc), vehicle: water). Further, the T/C under setting [3] was 90 % of control and 100 % of control; the T/C (endpoint: median survival time, dose: 108.0 mg/kg/injection, schedule: Q01DX Z (sc), vehicle: water) is 95 % of control; the T/C under setting [4] is 100 % of control and 105 % of control; the T/C (endpoint: median survival time, dose: 180.0 mg/kg/injection, schedule: Q01DX Z (sc), vehicle: water) is 100 % of control; the T/C under setting [5] was 105 % of control; the T/C (endpoint: median survival time, dose: 500.0 mg/kg/injection, schedule: Q01DX Z (sc), vehicle: methylcellulose (MC)) was 100 % of control.
In the case of `CCSc1ncnc2nc[nH]c12`, the T/C is, setting by setting: (endpoint: median survival time, dose: 38.9 mg/kg/injection, schedule: Q01DX Z (sc), vehicle: methylcellulose (MC)) 100 % of control; (endpoint: median survival time, dose: 64.8 mg/kg/injection, schedule: Q01DX Z (sc), vehicle: methylcellulose (MC)) 100 % of control; under setting [3], 110 % of control; under setting [4], 100 % of control; under setting [5], 110 % of control.
On to `CN(N=O)C(=O)Nc1c[nH]c(=O)[nH]c1=O`, for which the T/C is, setting by setting: under setting [6], 90 % of control; under setting [7], 100 % of control; under setting [8], 105 % of control; under setting [10], 95 % of control; under setting [11], 100 % of control.
`S=P(N1CCOCC1)(N1CC1)N1CC1`: the T/C reads like this: under setting [6], 96 % of control and 110 % of control (2×); (endpoint: median survival time, dose: 23.0 mg/kg/injection, schedule: Q## X Z (sc), vehicle: saline) 120 % of control; (endpoint: median survival time, dose: 39.0 mg/kg/injection, schedule: Q01DX001 (sc), vehicle: saline) 120 % of control; under setting [8], 150 % of control and 180 % of control; (endpoint: median survival time, dose: 65.0 mg/kg/injection, schedule: Q01DX001 (sc), vehicle: saline) 150 % of control; under setting [10], 150 % of control. In addition, the T/C is 170 % of control (endpoint: median survival time, dose: 65.0 mg/kg/injection, schedule: Q## X Z (sc), vehicle: saline); 104 % of control and 120 % of control under setting [11]; 104 % of control and 120 % of control under setting [12]; 115 % of control (endpoint: median survival time, dose: 500.0 mg/kg/injection, schedule: Q01DX001 (sc), vehicle: saline).

For the origin of these results see PubChem BioAssay AID250 (DTP/NCI, 2004).
